Laboratory results taken from a compilation of properties of binary mixtures (doi:10.1016/j.molliq.2020.112718).

Experiment: xn = mol fraction of the nth substance listed
Conditions: 100 kPa

CCOCC[n+]1ccn(C)c1.C[C@@H](O)[C@H](N)C(=O)[O-] + O
viscosity [mPa·s]
Conditions | 298.15 K | 303.15 K | 308.15 K | 313.15 K | 318.15 K | 323.15 K | 328.15 K
x1 = 0.3157 | 834 | 538 | 344 | 231 | 167 | – | 97.8
x1 = 0.3647 | 889 | 571 | 360 | – | 174.5 | – | –
x1 = 0.4246 | 938 | 604 | 376 | 259 | 180.6 | 130.8 | 102.6
x1 = 0.508 | 990 | 638 | 393 | 273 | 187.2 | 136.2 | –
x1 = 0.6189 | – | 671 | 410 | 287 | 195 | 143.5 | 109.6
x1 = 1 | 1133 | 730 | 439 | 313 | 207 | 153.8 | –

COCC[n+]1ccn(C)c1.C[C@@H](O)[C@H](N)C(=O)[O-] + O
viscosity [mPa·s]
Conditions | 298.15 K | 303.15 K | 308.15 K | 313.15 K | 318.15 K | 323.15 K | 328.15 K
x1 = 0.3313 | 740 | 473 | – | 199.2 | 139.9 | 101.7 | 82.2
x1 = 0.3795 | 767 | 500 | 306 | 210 | 148.1 | 108.5 | 84.9
x1 = 0.4475 | 800 | 529 | 320 | 222 | 155.8 | – | 88.2
x1 = 0.5347 | 829 | – | 332 | 233 | – | – | 91.3
x1 = 0.657 | 852 | – | 344 | 242 | 171.8 | – | 94.8
x1 = 1 | 900 | 625 | 362 | 260 | 184.4 | 136.8 | 99.6
